Experimental data as given in patent publication US8334315B2, “Substituted aromatic carboxamide and urea derivatives as vanilloid receptor ligands” (Gruenenthal GmbH, priority 2009, dated 2012).

Key:
hVR1 [1] = molecular target: T1, hVR1 (Homo sapiens, UniProt Q8NER1); assay: Functional test on human VR1, 45° C. stimulus; assay type: cell-based, human being; design: key to IC50 (human being), 45° C.: agonist / partial agonist / no effect: AG=agonist; pAG=partial agonist; NE=no effect; conditions: for IC50: read-out: IC50 (human being) [nM], 45° C.
T1 construct: expressed in transfected cells; host or cells: CHO K1 cells (ECACC), stably transfected
T1 sequence (Q8NER1 whole entry): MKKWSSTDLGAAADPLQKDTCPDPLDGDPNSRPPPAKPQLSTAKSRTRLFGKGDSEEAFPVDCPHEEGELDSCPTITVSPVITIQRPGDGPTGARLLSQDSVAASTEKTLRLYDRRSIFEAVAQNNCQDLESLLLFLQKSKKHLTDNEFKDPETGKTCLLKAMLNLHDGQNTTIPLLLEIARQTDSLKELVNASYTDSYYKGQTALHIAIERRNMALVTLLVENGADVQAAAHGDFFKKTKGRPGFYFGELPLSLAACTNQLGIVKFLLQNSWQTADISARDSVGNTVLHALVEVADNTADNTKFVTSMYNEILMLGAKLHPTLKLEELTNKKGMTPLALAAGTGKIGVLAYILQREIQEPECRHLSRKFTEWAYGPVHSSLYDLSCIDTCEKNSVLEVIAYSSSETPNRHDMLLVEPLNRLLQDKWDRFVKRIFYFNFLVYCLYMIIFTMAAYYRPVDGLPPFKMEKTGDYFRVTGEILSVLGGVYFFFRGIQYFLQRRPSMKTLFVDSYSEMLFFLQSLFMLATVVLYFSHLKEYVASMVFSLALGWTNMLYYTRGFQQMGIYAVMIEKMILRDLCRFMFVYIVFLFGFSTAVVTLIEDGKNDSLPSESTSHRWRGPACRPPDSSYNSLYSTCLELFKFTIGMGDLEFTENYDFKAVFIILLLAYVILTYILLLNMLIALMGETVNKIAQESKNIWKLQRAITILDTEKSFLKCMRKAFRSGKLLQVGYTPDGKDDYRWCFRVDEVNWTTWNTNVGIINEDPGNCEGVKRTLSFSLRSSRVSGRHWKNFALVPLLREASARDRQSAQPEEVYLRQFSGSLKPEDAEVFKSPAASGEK

hVR1 [2] = molecular target: T1, hVR1; assay: Functional test on VR1, FLIPR Ca2+ influx in transfected CHO K1 cells, capsaicin; assay type: cell-based, human being; design: key to Ki (human being) [nM] Cap: agonist / partial agonist / no effect: AG=agonist; pAG=partial agonist; NE=no effect; conditions: for Ki: capsaicin (Cap), includes values given in brackets after pAG, read-out: Ki (human being) [nM] Cap
hVR1 [3] = molecular target: T1, hVR1; assay: Functional test on human VR1, NADA (N-arachidonoyl dopamine) stimulus; assay type: cell-based, human being; design: key to Ki (human being) NADA: agonist / partial agonist / no effect: AG=agonist; pAG=partial agonist; NE=no effect; conditions: for Ki: includes values given in brackets after pAG, read-out: Ki (human being) [nM] NADA
Text: II. Functional Tests Carried Out on the Vanilloid Receptor (VR1)
The agonistic or antagonistic effect of the substances to be tested on the vanilloid receptor 1 (VR1) can also be determined using the following assay. In this assay, the influx of Ca^2+ through the channel is quantified with the aid of a Ca^2+-sensitive dye (type Fluo-4, Molecular Probes Europe BV, Leiden, the Netherlands) in a fluorescent imaging plate reader (FLIPR, Molecular Devices, Sunnyvale, USA).
Chinese hamster ovary cells (CHO K1 cells, European Collection of Cell Cultures (ECACC) United Kingdom) are stably transfected with the VR1 gene. For functional testing, these cells are plated out on poly-D-lysine-coated black 96-well plates having a clear base (BD Biosciences, Heidelberg, Germany) at a density of 25,000 cells/well. The cells are incubated overnight at 37° C. and 5% CO2 in a culture medium (Ham's F12 nutrient mixture, 10% by volume of FCS (foetal calf serum), 18 μg/ml of L-proline). The next day the cells are incubated with Fluo-4 (Fluo-4 2 μM, 0.01% by volume of Pluronic F127, Molecular Probes in HBSS (Hank's buffered saline solution), Gibco Invitrogen GmbH, Karlsruhe, Germany) for 30 minutes at 37° C. Subsequently, the plates are washed three times with HBSS buffer and after further incubation for 15 minutes at RT used for Ca^2+ measurement in a FLIPR assay. The Ca^2+-dependent fluorescence is measured before and after the addition of the substances to be tested (λex wavelength=488 nm, λem=540 nm). Quantification is carried out by measuring the highest fluorescence intensity (FC, fluorescence counts) over time.
The FLIPR protocol consists of 2 substance additions. First the compounds to be tested (10 μM) are pipetted onto the cells and the Ca^2+ influx is compared with the control (capsaicin 10 μM) (% activation based on the Ca^2+ signal after the addition of 10 μM of capsaicin). […]
Desensitising agonists and antagonists led to suppression of the Ca^2+ influx. The % inhibition is calculated compared to the maximum achievable inhibition with 10 μM of capsaicin.
Starting from the percentage displacement caused by different concentrations of the compounds to be tested of general formula I, IC50 inhibitory concentrations which cause a 50-per cent displacement of capsaicin were calculated. Ki values for the test substances were obtained by conversion by means of the Cheng-Prusoff equation (Cheng, Prusoff; Biochem. Pharmacol. 22, 3099-3108, 1973).
NADA=N-arachidonoyl dopamine

[4] = molecular target: T2, rat-species vanilloid receptor 1 (VR1/TRPV1) (Rattus norvegicus, UniProt O35433); assay: Functional testing on the vanilloid receptor 1, FLIPR Ca2+ influx in rat DRG cells, capsaicin; assay type: cell-based; design: key to Ki (rat) [nM] Cap: agonist / partial agonist / no effect: AG=agonist; pAG=partial agonist; NE=no effect; conditions: for Ki: capsaicin (Cap), includes values given in brackets after pAG
T2 construct: endogenous in cells; host or cells: primary cells dissociated from rat dorsal root ganglia (DRG), cultured 2-3 days with NGF
T2 sequence (O35433 whole entry): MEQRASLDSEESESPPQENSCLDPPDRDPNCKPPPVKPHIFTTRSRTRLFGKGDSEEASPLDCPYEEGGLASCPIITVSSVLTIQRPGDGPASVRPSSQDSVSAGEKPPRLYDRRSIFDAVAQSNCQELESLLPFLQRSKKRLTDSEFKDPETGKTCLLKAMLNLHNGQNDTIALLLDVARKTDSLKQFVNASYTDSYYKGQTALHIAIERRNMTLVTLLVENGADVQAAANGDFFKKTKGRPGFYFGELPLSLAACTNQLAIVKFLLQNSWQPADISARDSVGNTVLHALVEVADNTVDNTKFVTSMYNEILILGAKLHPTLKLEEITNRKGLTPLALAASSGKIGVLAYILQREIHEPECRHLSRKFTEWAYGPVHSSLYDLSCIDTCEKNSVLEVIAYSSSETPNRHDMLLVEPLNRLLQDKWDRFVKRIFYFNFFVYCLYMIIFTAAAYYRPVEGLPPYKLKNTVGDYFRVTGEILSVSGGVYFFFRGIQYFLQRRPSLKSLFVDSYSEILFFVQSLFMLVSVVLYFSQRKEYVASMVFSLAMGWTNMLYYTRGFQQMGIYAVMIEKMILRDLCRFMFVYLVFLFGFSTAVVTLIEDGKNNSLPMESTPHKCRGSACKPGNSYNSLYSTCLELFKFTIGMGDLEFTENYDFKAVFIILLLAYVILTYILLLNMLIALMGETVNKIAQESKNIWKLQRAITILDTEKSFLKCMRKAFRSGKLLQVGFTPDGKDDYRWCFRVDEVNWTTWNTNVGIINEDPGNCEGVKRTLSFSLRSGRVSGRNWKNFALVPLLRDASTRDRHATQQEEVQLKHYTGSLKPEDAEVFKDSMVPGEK
Text: I. Functional Testing Carried Out on the Vanilloid Receptor 1 (VRI/TRPV1 Receptor)
The agonistic or antagonistic effect of the substances to be tested on the rat-species vanilloid receptor 1 (VR1/TRPV1) can be determined using the following assay. In this assay, the influx of Ca^2+ through the receptor channel is quantified with the aid of a Ca^2+-sensitive dye (type Fluo-4, Molecular Probes Europe BV, Leiden, the Netherlands) in a fluorescent imaging plate reader (FLIPR, Molecular Devices, Sunnyvale, USA).
Complete medium: 50 ml HAMS F12 nutrient mixture (Gibco Invitrogen GmbH, Karlsruhe, Germany) with
10% by volume of FCS (foetal calf serum, Gibco Invitrogen GmbH, Karlsruhe, Germany, heat-inactivated);
2 mM L-glutamine (Sigma, Munich, Germany);
1% by weight of AA solution (antibiotic/antimyotic solution, PAA, Pasching, Austria) and 25 ng/ml NGF medium (2.5 S, Gibco Invitrogen GmbH, Karlsruhe, Germany)
Cell culture plate: Poly-D-lysine-coated, black 96-well plates having a clear base (96-well black/clear plate, BD Biosciences, Heidelberg, Germany) are additionally coated with laminin (Gibco Invitrogen GmbH, Karlsruhe, Germany), the laminin being diluted with PBS (Ca—Mg-free PBS, Gibco Invitrogen GmbH, Karlsruhe, Germany) to a concentration of 100 μg/ml. Aliquots having a laminin concentration of 100 μg/ml are removed and stored at −20° C. The aliquots are diluted with PBS in a ratio of 1:10 to 10 μg/ml of laminin and respectively 50 μL of the solution are pipetted into a recess in the cell culture plate. The cell culture plates are incubated for at least two hours at 37° C., the excess solution is removed by suction and the recesses are each washed twice with PBS. The coated cell culture plates are stored with excess PBS which is not removed until just before the feeding of the cells.
Preparation of the Cells:
The vertebral column is removed from decapitated rats and placed immediately into cold HBSS buffer (Hank's buffered saline solution, Gibco Invitrogen GmbH, Karlsruhe, Germany), i.e. buffer located in an ice bath, mixed with 1% by volume (per cent by volume) of an AA solution (antibiotic/antimyotic solution, PAA, Pasching, Austria). The vertebral column is cut longitudinally and removed together with fasciae from the vertebral canal. Subsequently, the dorsal root ganglia (DRG) are removed and again stored in cold HBSS buffer mixed with 1% by volume of an AA solution. The DRG, from which all blood remnants and spinal nerves have been removed, are transferred in each case to 500 μL of cold type 2 collagenase (PAA, Pasching, Austria) and incubated for 35 minutes at 37° C. After the addition of 2.5% by volume of trypsin (PAA, Pasching, Austria), incubation is continued for 10 minutes at 37° C. After complete incubation, the enzyme solution is carefully pipetted off and 500 μL of complete medium are added to each of the remaining DRG. The DRG are respectively suspended several times, drawn through cannulae No. 1, No. 12 and No. 16 using a syringe and transferred to a 50 ml Falcon tube which is filled up to 15 ml with complete medium. The contents of each Falcon tube are respectively filtered through a 70 μm Falcon filter element and centrifuged for 10 minutes at 1,200 rpm and RT. The resulting pellet is respectively taken up in 250 μL of complete medium and the cell count is determined.
The number of cells in the suspension is set to 3×10^5 per ml and 150 μL of this suspension are in each case introduced into a recess in the cell culture plates coated as described hereinbefore. In the incubator the plates are left for two to three days at 37° C., 5% by volume of CO2 and 95% relative humidity. […]

hVR1 [5] = molecular target: T1, hVR1; assay: Functional test on hVR1 after pH stimulus; assay type: cell-based, human being; design: key to IC50 (human being) hVR1, pH: agonist / partial agonist / no effect: AG=agonist; pAG=partial agonist; NE=no effect; conditions: for inhibition at 10 µM: read-out: IC50 (human being) hVR1, pH: inhibition (as a percentage)
hVR1 [6] = molecular target: T1, hVR1; assay: Functional test on VR1, FLIPR Ca2+ influx in transfected CHO K1 cells, capsaicin; assay type: cell-based; conditions: capsaicin (Cap), read-out: Ki (human being) Cap column: inhibition (as a percentage)

Row | SMILES | IC50 (hVR1 [1]) | Ki (hVR1 [2]) | Ki (hVR1 [3]) | Ki [4] | inhibition at 10 µM (hVR1 [5]) | inhibition at 5 µM (hVR1 [6]) | IC50 (human being), 45° C.: agonist / partial agonist / no effect (hVR1 [1]) | Ki (human being) [nM] Cap: agonist / partial agonist / no effect (hVR1 [2]) | Ki (human being) NADA: agonist / partial agonist / no effect (hVR1 [3]) | IC50 (human being) hVR1, pH: agonist / partial agonist / no effect (hVR1 [5]) | inhibition at 10 µM (hVR1 [1]; @ 10 μM, read-out: IC50 (human being), 45° C.: inhibition (as a percentage)) | Ki (rat) [nM] Cap: agonist / partial agonist / no effect [4]
1 | CC(C(=O)NCc1cc(C(C)(C)C)nn1-c1cccc(Cl)c1)c1cccc2ccc(O)cc12 (stereo not drawn) [Example 57, N-((3-tert-butyl-1-(3-chlorophenyl)-1H-pyrazol-5-yl)methyl)-2-(7-hydroxynaphthalen-1-yl)propanamide] | 25.6 nM | 1.6 nM | 0.1 nM | 4.2 nM | 13% |  |  |  |  |  |  | 
2 | CC(C(=O)NCc1cc(C(C)(C)C)nn1-c1cccc(Cl)c1)c1ccc2cc(O)ccc2c1 (stereo not drawn) [Example 49, N-((3-tert-butyl-1-(3-chlorophenyl)-1H-pyrazol-5-yl)methyl)-2-(6-hydroxynaphthalen-2-yl)propanamide] |  |  |  |  |  |  | AG | AG | AG | AG |  | 
3 | CC(C(=O)NCc1cc(C(C)(C)C)nn1-c1ccc(F)c(Cl)c1)c1cccc2cnccc12 (stereo not drawn) [Example 69, N-((3-tert-butyl-1-(3-chloro-4-fluorophenyl)-1H-pyrazol-5-yl)methyl)-2-(isoquinolin-5-yl)propanamide] |  | 0.2 nM | 0.004 nM | 0.9 nM | 13% |  |  |  |  |  | 26% | pAG

The remaining lines, values ahead:

Row | IC50 (hVR1 [1]) | Ki (hVR1 [2]) | Ki (hVR1 [3]) | Ki [4] | inhibition at 10 µM (hVR1 [5]) | inhibition at 5 µM (hVR1 [6]) | IC50 (human being), 45° C.: agonist / partial agonist / no effect (hVR1 [1]) | Ki (human being) [nM] Cap: agonist / partial agonist / no effect (hVR1 [2]) | Ki (human being) NADA: agonist / partial agonist / no effect (hVR1 [3]) | IC50 (human being) hVR1, pH: agonist / partial agonist / no effect (hVR1 [5]) | inhibition at 10 µM (hVR1 [1]; @ 10 μM, read-out: IC50 (human being), 45° C.: inhibition (as a percentage)) | Ki (rat) [nM] Cap: agonist / partial agonist / no effect [4] | SMILES
4 | 297 nM | 1.1 nM | 0.008 nM | 11.2 nM | 13% |  |  |  |  |  |  |  | CC(C(=O)NCc1cc(C(F)(F)F)nn1-c1cccc(Cl)c1)c1cccc2[nH]ncc12 (stereo not drawn) [Example 27, N-((1-(3-chlorophenyl)-3-(trifluoromethyl)-1H-pyrazol-5-yl)methyl)-2-(1H-indazol-4-yl)propanamide]
5 |  |  |  |  |  | 13% |  |  |  |  |  |  | COc1ccc(Cn2nc(C(F)(F)F)cc2CNC(=O)C(C)c2ccc3c(c2)OCCO3)cc1 (stereo not drawn) [Example 202, 2-(2,3-dihydrobenzo[b][1,4]dioxin-6-yl)-N-((1-(4-methoxybenzyl)-3-(trifluoromethyl)-1H-pyrazol-5-yl)methyl)propanamide]
